Where two headings read alike, the source gives them in different places. One block for each compound: values may come before it.
Experiments:
[1] = Solubility of ranolazine in aqueous solutions by pH; assay type: physicochemical
[2] = system: patients with chronic stable angina pectoris; assay: Example 4: exercise treadmill test (ETT) at peak and trough, IR regimens; assay type: in vivo, human; details: Peak, all patients, 267 mg tid IR ranolazine .2HCl
Procedure: In this Example, the safety and anti-ischemic effects of high plasma ranolazine levels in a large group of angina patients was evaluated and the duration of any effects during steady-state dosing with bid and tid regimens was assessed. In this Example, patients with chronic stable angina pectoris who were responsive to conventional antianginal drugs were treated with 3 ranolazine .2HCl dosing regimens: 267 mg tid, 400 mg bid and 400 mg tid IR Formulations of Example 1. Exercise testing parameters and ranolazine free base concentrations were determined at peak and trough plasma levels.
The study involved double-blind, placebo-controlled randomized treatment phase with 4 treatments (placebo, ranolazine .2HCl 400 mg bid, ranolazine .2HCl 267 mg tid, and ranolazine .2HCl 400 mg tid), 4 treatment sequences and 5 double-blind treatment periods in an extended period Latin square design on pre-qualified patients who were responsive to known antianginal therapy and had stable exercise times.
Human patients with chronic stable angina pectoris, of at least 3 months' duration, that had responded to conventional antianginal therapy were considered candidates. […]

[3] = system: patients with chronic stable angina pectoris; assay: Example 4: safety, hemodynamics and tolerability; assay type: in vivo, human
Procedure: After each 1 week period, patients returned to the exercise laboratory in the morning, at least 1 hour after a light breakfast, for an ETT. This was designated the trough ETT; the trough ETTs were performed at the same time of day for each patient. After completing the trough ETT, the patient received the next scheduled blinded medication dose from the blister pack used that week. Another ETT was performed 1 hour after the administered dose. This was designated the peak ETT. Blood samples were obtained at trough (approximately 8 hours after dosing) and at peak (1 hour after dosing). Other standard laboratory tests were monitored regularly throughout the study.
Blood pressure (by cuff) and heart rate were monitored before all ETTs, during the ETT, during the last minute of each stage of the test, at onset angina, at the point of maximum exercise, and during recovery (every minute for 4 minutes, then every 5 minutes until values returned to baseline). Heart rates also was monitored continuously and standard 12-lead ECG recordings were done immediately before exercise with the patient standing on the treadmill, at the end of each stage of exercise, at the maximally tolerated exercise load, and at the termination of exercise.

[4] = Example 8: Day 5 pharmacokinetics of racemic ranolazine and enantiomers, SR 1500 and 2000 mg bid; assay type: in vivo, human; details: for Tmax / Cmax / AUC: male, human, plasma, oral; for AUC: read-out: AUC96-108h; for differences in the pharmacokinetic parameters of the enantiomers: multiple dosing with the SR formulation
Procedure: This Example evaluated the safety and tolerability of administering racemic ranolazine free base formulations as in Example 2D. The individual and mean concentrations of racemic ranolazine and its enantiomers, (R)-(+)-N-(2,6-dimethylphenyl)-4-[2-hydroxy-3-(2-methoxyphenoxy)-propyl]-1-piperazineacetamide, (S)-(−)-N-(2,6-dimethylphenyl)-4-[2-hydroxy-3-(2-methoxyphenoxy)-propyl]-1-piperazineacetamide in human plasma were also determined.
(§1) The study was performed with ascending doses of sustained release ranolazine dosage forms. Before and at intervals during and after the dosing period, blood samples were drawn for ranolazine assay and blood pressure, heart rate, ECG and symptoms were monitored throughout. Data summaries were reviewed after each phase before proceeding to the next phase of the study.
(§2) Eight subjects, all healthy male volunteers aged between 18 and 40 entered and all completed the study and were available for pharmacokinetic and safety analysis. The subjects were each given doses of the various types of ranolazine free base in the form of sustained release tablets including 500 mg and 750 mg tablets or with matching placebo as necessary (2×750 mg size plus 1×500 mg size) to make unit oral doses of 1500 and 2000 mg.
(§3) In each phase: one dose bid for four days with a single dose on Day 5. On day 5 each volunteer underwent a full pharmacokinetic profile including supine and erect blood pressure (BP) and heart rate, ECG data, adverse events, clinical chemistry and hematology results, urinalysis results.
(§4) These tests were made using two-sided t-tests with estimates of variability from the ANOVA models. Steady state was also assessed by comparing means for C48h, C72h and C96h using a mixed effects ANOVA model and untransformed and log, transformed data. For hemodynamic parameters, Day 1 pre-dose treatment means and Day 5 data were compared across treatments via two-sided t-tests using estimates of variability from mixed effects ANOVA models. Ninety and 95% confidence intervals were calculated for the treatment comparisons. No adjustments were made for multiple comparisons.

[5] = system: healthy male volunteers; assay: Example 8: safety and tolerability of SR 1500 and 2000 mg bid; assay type: in vivo, human; details: for subjects too symptomatic on standing to complete BP measurements: usually 2-6 hours post-dose; for reduction in orthostatic systolic BP: statistically significant
Procedure: as §1, §2, §3, §4

[6] = system: patients with stable angina pectoris; details: cited from earlier work; for increase in total exercise duration (±SEM) compared with baseline: after 4 weeks, 1 hour after medication (peak effect), P=NS vs placebo
[7] = cited from earlier work; for mean peak plasma concentration of ranolazine free base: 1 hour after dose; for mean trough plasma concentration: 8 hours after dose
[8] = Day 5, 1500 mg SR bid (racemic, Example 2D)
[9] = Day 5, 2000 mg SR bid (racemic, Example 2D)
[10] = 1500 mg, Day 5, 1500 mg SR bid (racemic, Example 2D), read-out: Median tmax

USP Solubility Class ([1]; Solution pH 4.81): Freely soluble
USP Solubility Class ([1]; Solution pH 4.89): Soluble
USP Solubility Class ([1]; Solution pH 4.90): Soluble
USP Solubility Class ([1]; Solution pH 5.04): Soluble
USP Solubility Class ([1]; Solution pH 5.35): Sparingly soluble
USP Solubility Class ([1]; Solution pH 5.82): Slightly soluble
USP Solubility Class ([1]; Solution pH 6.46): Slightly soluble
USP Solubility Class ([1]; Solution pH 6.73): Very slightly soluble
USP Solubility Class ([1]; Solution pH 7.08): Very slightly soluble
USP Solubility Class ([1]; Solution pH 7.59 (unbuffered water)): Very slightly soluble
USP Solubility Class ([1]; Solution pH 7.73): Very slightly soluble
USP Solubility Class ([1]; Solution pH 12.66): Very slightly soluble
Cave [4, 8]: 4126 ± 1995 ng/mL
Cmin [4, 8]: 2932 ± 1918 ng/mL
Degree of fluctuation [4, 8]: 0.664
Cave [4, 9]: 5705 ± 2153 ng/mL
Cmin [4, 9]: 4149 ± 2228 ng/mL
Degree of fluctuation [4, 9]: 0.591
Steady-state plasma levels of ranolazine free base attained by ([4]; SR bid dosing): ≤ 4 days
Tmax [4, 10]: 4 h
Tmax ([4]; 2000 mg, Day 5, 2000 mg SR bid (racemic, Example 2D), read-out: Median tmax): 4 h
Tmax ([4]; 2000 mg, within the dose interval, SR 1500 and 2000 mg bid, read-out: tmax values post-dose): 1 to 6 h
Cmax [4, 8]: 5280 ± 2430 ng/mL
AUC [4, 8]: 49500 ng·h/mL
Cmax [4, 9]: 7280 ± 2700 ng/mL
AUC [4, 9]: 68500 ng·h/mL
Compound: COc1ccccc1OCC(O)CN1CCN(CC(=O)Nc2c(C)cccc2C)CC1 (racemic) [ranolazine, (±)-N-(2,6-dimethylphenyl)-4-[2-hydroxy-3-(2-methoxyphenoxy)-propyl]-1-piperazineacetamide]
Mean time to onset angina [2]: 9.40 min
ECG intervals or complex morphology ([3]; 3 IR dosing regimens): no drug-related changes
blood glucose concentrations, lipid values or liver function tests ([3]; 3 IR dosing regimens): no clinically significant changes
tolerability ([3]; over the plasma concentrations achieved in the study): well tolerated
blood pressure or heart rate ([3]; peak ranolazine plasma concentrations): not associated with changes in blood pressure or heart rate
double product versus placebo ([3]; peak ranolazine plasma concentrations, any dosing regimen): no statistically significant differences
standing or maximum exercise double product versus placebo ([3]; trough ranolazine plasma concentrations, per-protocol analysis, 3 dosing regimens): no statistically significant differences
subjects too symptomatic on standing to complete BP measurements ([5]; 1500 mg SR bid): 3 of 8
subjects too symptomatic on standing to complete BP measurements ([5]; 2000 mg SR bid): 2 of 8
adverse events ([5]; SR 1500 and 2000 mg bid versus placebo): headache, dizziness and blocked nose seemed more common on ranolazine
reduction in orthostatic systolic BP ([5]; day 5, 1500 mg SR bid, 4 hours post-dose): −9.8 mm Hg
reduction in orthostatic systolic BP ([5]; day 5, 2000 mg SR bid, 6 hours post-dose): −8.4 mmHg
increase in total exercise duration (±SEM) compared with baseline ([6]; 30 mg tid): 0.3 ± 0.2 min
increase in total exercise duration (±SEM) compared with baseline ([6]; 60 mg tid): 0.6 ± 0.2 min
increase in total exercise duration (±SEM) compared with baseline ([6]; 120 mg tid): 0.5 ± 0.2 min

Cave [4, 8]: 2144 ± 1115 ng/mL
Cmin [4, 8]: 1436 ± 1046 ng/mL
Degree of fluctuation [4, 8]: 0.833
Tmax [4, 10]: 4 h
Cmax [4, 8]: 2910 ± 1310 ng/mL
AUC [4, 8]: 25700 ng·h/mL
differences in the pharmacokinetic parameters of the enantiomers [4]: no differences
Compound: COc1ccccc1OC[C@H](O)CN1CCN(CC(=O)Nc2c(C)cccc2C)CC1 [(+)R ranolazine, (R)-(+)-N-(2,6-dimethylphenyl)-4-[2-hydroxy-3-(2-methoxyphenoxy)-propyl]-1-piperazineacetamide]

Cave [4, 8]: 2201 ± 1237 ng/mL
Cmin [4, 8]: 1514 ± 1201 ng/mL
Degree of fluctuation [4, 8]: 0.824
Tmax [4, 10]: 4 h
Cmax [4, 8]: 2940 ± 1430 ng/mL
AUC [4, 8]: 26400 ng·h/mL
differences in the pharmacokinetic parameters of the enantiomers [4]: no differences
Compound: COc1ccccc1OC[C@@H](O)CN1CCN(CC(=O)Nc2c(C)cccc2C)CC1 [(−)S ranolazine, (S)-(−)-N-(2,6-dimethylphenyl)-4-[2-hydroxy-3-(2-methoxyphenoxy)-propyl]-1-piperazineacetamide]

Compound: COc1ccccc1OCC(O)CN1CCN(CC(=O)Nc2c(C)cccc2C)CC1 (centres unmarked) [ranolazine .2HCl]
mean peak plasma concentration of ranolazine free base ([7]; 30 mg tid IR): 94 ng/mL
mean trough plasma concentration ([7]; 30 mg tid IR): 18 ng/mL
mean peak plasma concentration of ranolazine free base ([7]; 60 mg tid IR): 219 ng/mL
mean trough plasma concentration ([7]; 60 mg tid IR): 37 ng/mL
mean peak plasma concentration of ranolazine free base ([7]; 120 mg tid IR): 510 ng/mL
mean trough plasma concentration ([7]; 120 mg tid IR): 90 ng/mL
therapy compared with placebo ([6]; 30, 60 and 120 mg tid): not superior to placebo

Reference: US6525057B2, “Sustained release ranolazine formulations” (CV Therapeutics, Inc., priority 1998, dated 2003)
